Measurements: patent US20070185138A1, “Imidazolopyrimidines used as fungicidal active ingredients” (priority 2004, published 2007)

Key:
[1] = logP determination by HPLC (EEC Directive 79/831 Annex V. A8); assay type: physicochemical; details: HPLC gradient method, acetonitrile/0.1% aqueous phosphoric acid
Method: The logP values were determined in accordance with EEC Directive 79/831 Annex V. A8 by HPLC (gradient method, acetonitrile/0.1% aqueous phosphoric acid).

Botrytis cinerea = experiment: Botrytis test (cucumber)/protective; assay type: in vivo; details: young cucumber plants, protective spray, application rate 750 g/ha, evaluation 5-6 days after inoculation
Method: • Botrytis test (cucumber)/protective • Solvent: 49 parts by weight of N,N-dimethylformamide • Emulsifier: 1 part by weight of alkylaryl polyglycol ether
To produce a suitable preparation of active compound, 1 part by weight of active compound is mixed with the stated amounts of solvent and emulsifier, and the concentrate is diluted with water to the desired concentration.
To test for protective activity, young cucumber plants are sprayed with the preparation of active compound at the stated application rate. One day aft er the treatment, the plants are inoculated with a spore suspension of Botrytis cinerea and then remain at 100% relative hunmdity and 20° C. for 48 h. The plants then remain at 96% relative atmospheric-humidity and a temperature of 10° C.
Evaluation is carried out 5-6 days after the inoculation. 0% means an efficacy which corresponds to that of the control, whereas an efficacy of 100% means that no infection is observed.

## C[Si](C)(C)CNc1nc2nccn2c(Cl)c1-c1c(F)cc(F)cc1F [Example 1, 5-chloro-6-(2,4,6-trifluorophenyl-)-7-trimethylsilylmethylaminoimidazo[1,2-a]pyrimidine]
[1]
  logP: 2.09

## CC(Nc1nc2nccn2c(Cl)c1-c1c(F)cc(F)cc1F)[Si](C)(C)C (stereo not drawn) [Example 2, 5-chloro-6-(2,4,6-trifloropheny)-7-(1-trimethylsilylethylamino)imidazo[1,2-a]pyrimidine]
[1]
  logP: 2.18
Botrytis cinerea
  efficacy: > 80%
